The results in this text go back to patent publication US20240342080A1, “COMPOSITIONS AND METHODS FOR INHIBITING HUMAN BLOOD PROTEIN VITRONECTIN” (Sanford Burnham Prebys Medical Discovery Institute, priority 2021, published 2024).

The test system of test [1] is HAP deposited on spherules. The test is described as follows: In vitro drusen model: production of HAP-protein-lipid proto-spherules (fluorescence emission reflects HAP deposited). The format is biochemical. The text has this:
(§1) An in vitro assay was designed to produce proto-spherule like those found in AMD drusen. HAP was detected with a specific fluorescent dye. This assay was used to discover inhibitors.
(§2) In Vitro Drusen Model: Production of HAP-Protein-Lipid Proto-Spherules
(§3) In this model, fluorescence emission reflected the amount of HAP deposited on spherules. The results are show in FIG. 1. […] Pyrophosphate (PPi) is a mineralization inhibitor and serves as negative control. There are many HAP-binding proteins but Vn is unique: it plays an active role in HAP mineralization.

Test [2] addresses T1, human blood protein vitronectin (Vn) (Homo sapiens, UniProt P04004).
T1 construct: made in house; host or cells: Escherichia coli
T1 sequence (P04004 20-478): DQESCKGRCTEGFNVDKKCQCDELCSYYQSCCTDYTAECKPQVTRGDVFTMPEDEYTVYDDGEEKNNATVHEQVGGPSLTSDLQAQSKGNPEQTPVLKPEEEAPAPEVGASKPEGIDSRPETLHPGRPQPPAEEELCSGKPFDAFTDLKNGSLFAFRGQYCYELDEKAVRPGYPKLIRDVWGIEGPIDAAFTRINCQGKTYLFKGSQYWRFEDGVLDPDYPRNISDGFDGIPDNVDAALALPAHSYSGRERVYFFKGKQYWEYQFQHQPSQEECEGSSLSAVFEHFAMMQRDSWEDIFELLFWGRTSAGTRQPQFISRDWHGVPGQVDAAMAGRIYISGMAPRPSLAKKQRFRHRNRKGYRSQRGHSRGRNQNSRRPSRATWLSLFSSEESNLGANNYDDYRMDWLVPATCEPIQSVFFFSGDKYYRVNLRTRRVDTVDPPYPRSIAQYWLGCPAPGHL
The test is described as follows: In vitro drusen model used to test Vn antibodies as inhibitors of Vn-dependent HAP deposition. Conditions: FIG. 2. Type of test: biochemical. As for the experimental part: as §1
Vn was prepared from Escherichia coli. All buffer solutions were prepared with Milli-Q deionized water. For calcium-free preparations, the protein was folded by dropwise dilution from buffer T1 (20 mM Tris HCl pH 8, 6 M guanidine, 10 mM dithiothreitol) into buffer T2 (20 mM Tris HCl pH 8, 500 mM ArgCl, 300 mM NaCl, 5 mM β-mercaptoethanol, 1 mM hydroxyethyldisulfide), followed by dialysis into buffer MI (20 mM MES, pH 6.5, 300 mM NaCl) and size exclusion chromatography (Superdex 200 10/300 GL, GE Healthcare). Calcium-containing samples were prepared by supplementing buffer MI with CaCl2).
as §2, §3
This assay was used to test Vn antibodies (need details on Abc, Abm and Abn and IGF II) as potential inhibitors.

Regarding “Amyloid-β (Aβ): Amyloid-β, comparison protein in the in vitro drusen model [reference compound]”, the “effect on HAP deposition / mineralization on spherules (fluorescence emission)” value in test [1] (FIG. 1) is on record as “no significant effect on HAP mineralization”.

Consider “Vitronectin: human blood protein vitronectin, prepared from Escherichia coli”, for which the “effect on HAP deposition (fluorescence emission)” value in test [2] is “promotes HAP deposition in a dose- and time-dependent manner”. Further, the “effect on HAP deposition / mineralization on spherules (fluorescence emission)” value in test [1] (FIG. 1) was “increases HAP deposition on spherules in a dose-dependent and time-dependent manner”; in test [1] (FIG. 1, listed as Vn), “promotes HAP formation”.
